# In patent publication US9765075B2, “Substituted bridged urea analogs as sirtuin modulators” (GLAXOSMITHKLINE LLC, priority 2013, dated 2017):
# Molecular target: T1, SIRT1 (Homo sapiens, UniProt Q96EB6)
# T1 sequence (Q96EB6 1-747): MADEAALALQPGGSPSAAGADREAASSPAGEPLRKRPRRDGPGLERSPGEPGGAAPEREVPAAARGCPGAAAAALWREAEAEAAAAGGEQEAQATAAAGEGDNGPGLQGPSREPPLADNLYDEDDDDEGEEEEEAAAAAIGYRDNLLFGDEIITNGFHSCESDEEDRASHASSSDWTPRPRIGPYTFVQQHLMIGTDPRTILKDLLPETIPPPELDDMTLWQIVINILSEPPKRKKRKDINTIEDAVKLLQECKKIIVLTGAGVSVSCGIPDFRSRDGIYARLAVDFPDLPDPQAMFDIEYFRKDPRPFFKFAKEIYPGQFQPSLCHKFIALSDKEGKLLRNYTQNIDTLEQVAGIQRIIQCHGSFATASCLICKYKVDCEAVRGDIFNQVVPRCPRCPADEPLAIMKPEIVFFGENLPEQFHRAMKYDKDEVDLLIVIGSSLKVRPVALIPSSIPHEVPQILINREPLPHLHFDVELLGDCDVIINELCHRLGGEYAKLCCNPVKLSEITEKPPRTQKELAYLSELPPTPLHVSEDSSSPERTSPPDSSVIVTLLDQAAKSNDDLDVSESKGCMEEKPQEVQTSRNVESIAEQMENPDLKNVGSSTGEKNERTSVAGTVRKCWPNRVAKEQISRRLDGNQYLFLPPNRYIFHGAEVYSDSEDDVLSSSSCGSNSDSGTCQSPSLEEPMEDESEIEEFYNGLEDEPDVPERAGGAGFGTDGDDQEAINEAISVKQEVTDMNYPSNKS
# Assay: Trp mass spectrometry assay (SIRT1 activation)
# Assay type: biochemical
# Conditions: Trp peptide substrate; for Tryp AVG EC1.5 (μM): concentration of test compound that results in 150% activation of SIRT1; for Emax: percent maximum fold activation of SIRT1, read-out: Tryp % Fold Act
# Procedure, shortened: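 N-His-tagged SIRT1 (10 nM), expressed in E. coli, was incubated with 0.5 μM Ac-RHKK(Ac)W-NH2 peptide and 120 μM NAD+ for 25 min at 25 °C in HEPES pH 7.5 with […]. The reaction was stopped with formic acid and O-acetyl-ADP-ribose or deacetylated peptide was quantified by mass spectrometry. Results are given as EC1.5 and percent maximal activation relative to DMSO control.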
SMILES,Tryp AVG EC1.5 (μM),Emax [%]
NCc1ccc(NC(=O)N2c3nc(-c4cccc(C(F)(F)F)c4)ccc3N3CC[C@H]2C3)cc1 [Example 429],B (EC1.5 1-25 μM),≥ 150
O=C(CCCC[C@@H]1SCC2NC(=O)NC21)NCCCCCC(=O)NCc1ccc(NC(=O)N2c3nc(-c4cccc(C(F)(F)F)c4)ccc3N3CCC[C@H]2C3)cc1 (stereo partly shown) [Example 430],A (EC1.5<1 μM),≥ 150
O=C(Nc1cnccn1)N1c2nc(-c3cncc(F)c3)ccc2N2CCC[C@H]1C2 [Example 432],B (EC1.5 1-25 μM),≥ 150
O=C(Nc1cnccn1)N1c2nc(-c3ccnc(N4CC[C@H](F)C4)c3)ccc2N2CC[C@H]1C2 [Example 436],A (EC1.5<1 μM),≥ 150
N#Cc1ccccc1-c1ccc2c(n1)N(C(=O)Nc1cccnc1)[C@H]1CCCN2C1 [Example 438],B (EC1.5 1-25 μM),≥ 150
N#Cc1ccccc1-c1ccc2c(n1)N(C(=O)Nc1cncc(F)c1)[C@H]1CCCN2C1 [Example 439],B (EC1.5 1-25 μM),≥ 150
O=C(Nc1ccccn1)N1c2nc(-c3cccnc3)ccc2N2CCC[C@H]1C2 [Example 441],B (EC1.5 1-25 μM),≥ 150
COc1cc(NC(=O)N2c3nc(-c4cccnc4)ccc3N3CCC[C@H]2C3)ncn1 [Example 442],B (EC1.5 1-25 μM),≥ 150
O=C(Nc1cnccn1)N1c2nc(-c3cccc(Cl)c3)cc(O)c2N2CC[C@H]1C2 [Example 443],B (EC1.5 1-25 μM),≥ 150
CC(C)(C)OC(=O)NCc1ccc(NC(=O)N2c3nc(-c4cccc(C(F)(F)F)c4)ccc3N3CCC[C@H]2C3)cc1 [Example 445],A (EC1.5<1 μM),≥ 150
CC(C)N1CCCN(c2ccc3c(n2)N(C(=O)Nc2ccncn2)[C@H]2CCCN3C2)CC1 [Example 447],C (EC1.5>25 μM),< 150
O=C(Nc1ccccn1)N1c2nc(-c3ccnc(N4CC[C@@H](F)C4)c3)ccc2N2CC[C@H]1C2 [Example 448],B (EC1.5 1-25 μM),≥ 150
N#Cc1ccccc1-c1ccc2c(n1)N(C(=O)Nc1cnccn1)[C@H]1CCCN2C1 [Example 450],B (EC1.5 1-25 μM),≥ 150
N#Cc1ccccc1-c1ccc2c(n1)N(C(=O)Nc1ccncn1)[C@H]1CCCN2C1 [Example 451],B (EC1.5 1-25 μM),≥ 150
O=C(Nc1cnccn1)N1c2nc(-c3cncc(C(F)(F)F)c3)ccc2N2CCC[C@H]1C2 [Example 452],A (EC1.5<1 μM),≥ 150

# Continued, values first:
Tryp AVG EC1.5 (μM),Emax [%],SMILES
A (EC1.5<1 μM),≥ 150,O=C(Nc1ccc(F)cn1)N1c2nc(-c3cncc(F)c3)ccc2N2CCC[C@H]1C2 [Example 431]
B (EC1.5 1-25 μM),≥ 150,CS(=O)(=O)N1CCCN(c2ccc3c(n2)N(C(=O)Nc2ccncn2)[C@H]2CCCN3C2)CC1 [Example 433]
C (EC1.5>25 μM),< 150,CC(=O)N1CCCN(c2ccc3c(n2)N(C(=O)Nc2ccncn2)[C@H]2CCCN3C2)CC1 [Example 434]
A (EC1.5<1 μM),≥ 150,O=C(Nc1cnccn1)N1c2nc(-c3ccc(Cl)c(C(F)(F)F)c3)ccc2N2CC[C@H]1C2 [Example 435]
B (EC1.5 1-25 μM),≥ 150,COc1cc(NC(=O)N2c3nc(-c4ccnc(N5CC[C@H](F)C5)c4)ccc3N3CC[C@H]2C3)ncn1 [Example 437]
C (EC1.5>25 μM),< 150,COc1cc(NC(=O)N2c3nc(-c4ccccc4C#N)ccc3N3CCC[C@H]2C3)ncn1 [Example 440]
B (EC1.5 1-25 μM),≥ 150,COC(=O)N1CCCN(c2ccc3c(n2)N(C(=O)Nc2ccncn2)[C@H]2CCCN3C2)CC1 [Example 446]
B (EC1.5 1-25 μM),≥ 150,N#Cc1ccccc1-c1ccc2c(n1)N(C(=O)Nc1ccccn1)[C@H]1CCCN2C1 [Example 449]
